# How the values were obtained:
# [1] = test system: human breast cancer ZR-75-1 cells; conditions: low concentrations, in vitro; cited from earlier work
# [2] = castrated adult rats; cited from earlier work
# [3] = pharmacokinetics of CPA in humans, plasma concentration; format: in vivo, human; conditions: longer period of continual dosing of 50 mg per day
# Source text: The Androcur® Monograph, Berlex, Canada (1997) reports on the pharmacokinetics of CPA in humans. […] Blood levels of CPA are known to be generally dose dependent.
# [4] = men; cited from earlier work
# [5] = male subjects, oral, one 50 mg dose; cited from earlier work
# [6] = 367 evaluable patients; criteria weight gain and pain relief; cited from earlier work
# [7] = orchiectomized patients, 6 months, 150 mg/day CPA (50 mg t.i.d.); cited from earlier work
# [8] = cited from earlier work
# [9] = 17 patients, goserelin alone; cited from earlier work
smiles,measurement,setting,value
C[C@]12CC[C@H]3[C@@H](CCC4=CC(=O)CC[C@@H]43)[C@@H]1CC[C@@H]2O [nor-testosterone],androgenic activity,[1],possess androgenic activity
"CC(=O)O[C@]1(C(C)=O)CC[C@H]2[C@@H]3C=C(Cl)C4=CC(=O)[C@@H]5C[C@@H]5[C@]4(C)[C@H]3CC[C@@]21C [CPA, Cyproterone acetate]",inhibition of complete involution of the ventral prostate,[2],very weak
same,"cumulative plasma level, steady state",[3],≥ 750 nmol/L
same,androgenic activity,[1],possess androgenic activity
same,threshold value for an antiandrogen effect,[4],50 mg
same,mean plasma concentration,[5],about 700 nmol/L
same,patients with general improvement in subjective assessment of quality of life,[6],70%
same,number of patients experiencing hot flashes or outbreaks of sweating,[7],decreased
same,discontinuation due to side effects,"[8]; 89 orchiectomized patients, 50 mg/day CPA, 2 to 152 months",in no case
same,cases of hepatocellular carcinoma,"[8]; over 2500 patients, long term CPA use",Not a single case
CC(C)C[C@H](NC(=O)[C@@H](COC(C)(C)C)NC(=O)[C@H](Cc1ccc(O)cc1)NC(=O)[C@H](CO)NC(=O)[C@H](Cc1c[nH]c2ccccc12)NC(=O)[C@H](Cc1cnc[nH]1)NC(=O)[C@@H]1CCC(=O)N1)C(=O)N[C@@H](CCCNC(=N)N)C(=O)N1CCC[C@H]1C(=O)NNC(N)=O [goserelin],patients with transient increase in bone pain,[9],58.5%
C#C[C@]1(O)CC[C@H]2[C@@H]3CCC4=CC(=O)CC[C@]4(C)[C@H]3CC[C@@]21C [ethisterone],androgenic activity,[1],possess androgenic activity
